The source of these data is PMC11513842, “Development of an orally bioavailable CDK12/13 degrader and induction of synthetic lethality with AKT pathway inhibition” (Cell Reports Medicine, 2024).

What all share (type): in vivo, mouse
In one assay the test system is PC310 PDX. Nature of the assay: PC310 patient-derived xenograft efficacy. Conditions: YJ1206 p.o. 100 mg/kg 3x/week, uprosertib p.o. 15 mg/kg 5x/week. Here is the method: (§1) Six-week-old male CB17SCID mice obtained from Charles River (Stock # 236), were used to establish subcutaneous tumors on both dorsal flanks. Tumor dimensions were measured biweekly using digital calipers, applying the formula (π/6) (L × W^2), where L and W represent tumor length and width, respectively. At the study conclusion, mice were euthanized, and tumors were excised and weighed. The University of Michigan Institutional Animal Care and Use Committee (IACUC) approved all in vivo studies.
WA74 PDX model was developed at the University of Michigan during collection of a rapid autopsy case as part of the Michigan Legacy Tissue Program (MLTP). PC310 PDX model was obtained from Erasmus Medical Center, Rotterdam, the Netherlands. Both PDX lines were propagated in male CB17SCID mice by surgically implanting 2 mm^3 tumor fragments, coated with 100% Matrigel, into both flanks of mice. When tumors reached approximately 200 mm^3, mice were randomized into treatment groups. These groups received either 30 mg/kg YJ9069 via intravenous injection or 100 mg/kg YJ1206 by oral gavage, both administered three times per week, with or without 15 mg/kg uprosertib by oral gavage five days per week for 3–4 weeks. In accordance with IACUC guidelines, the maximum tumor size was limited to 2.0 cm in any dimension, and mice were euthanized if xenografts reached this endpoint.

Assay [1] deals with castrated VCaP and 22Rv1 CDX models. Nature of the assay: Castrated VCaP and 22Rv1 CDX models, combination efficacy. The following applies: YJ1206 p.o. 100 mg/kg 3x/week, uprosertib p.o. 15 mg/kg 5x/week. As for the experimental part:
as §1
For the VCaP castration-resistant tumor model, 3×10^6 VCaP cells were subcutaneously injected into both dorsal flanks of mice using a serum-free medium mixed with 50% Matrigel (BD Biosciences). Upon tumors reaching palpable size (∼200 mm^3), animals underwent castration. When tumors regrew to their pre-castration size, mice were randomized for treatment with 30 mg/kg YJ9069 or vehicle via intravenous injection or 100 mg/kg YJ1206 or vehicle, with or without 15 mg/kg uprosertib by oral gavage. […]
For the 22Rv1 castration-resistant tumor model, mice underwent castration and then 12 days of recovery. Subsequently, 1 × 10^6 22Rv1 cells were subcutaneously injected into both dorsal flanks using a serum-free medium with 50% Matrigel (BD Biosciences). […]

For assay [2], the system named is castrated VCaP xenograft (VCaP-CRPC). The assay can be described thus: VCaP castration-resistant prostate cancer xenograft efficacy. Conditions: castrated VCaP xenograft, 31 days; YJ1206 p.o. 100 mg/kg 3x/week, uprosertib p.o. 15 mg/kg 5x/week. As for the experimental part:
as §1
For the VCaP castration-resistant tumor model, 3×10^6 VCaP cells were subcutaneously injected into both dorsal flanks of mice using a serum-free medium mixed with 50% Matrigel (BD Biosciences). Upon tumors reaching palpable size (∼200 mm^3), animals underwent castration. When tumors regrew to their pre-castration size, mice were randomized for treatment with 30 mg/kg YJ9069 or vehicle via intravenous injection or 100 mg/kg YJ1206 or vehicle, […]

Take `Cn1ncc(Cl)c1-c1cc(C(=O)N[C@H](CN)Cc2ccc(F)c(F)c2)oc1Cl` [uprosertib, reference compound]: in the assay with PC310 PDX, the “progressive disease (PD), waterfall plot (RECIST)” value is 100% and the tumor growth inhibition entry is listed as “only moderate or mild tumor inhibition”. Also, in assay [1], the anti-tumor efficacy result was “moderate anti-tumor efficacy”. The “progressive disease (PD), waterfall plot (RECIST)” value in assay [2] is 100%.
